Data published in ChEMBL document CHEMBL3301361, “Experimental in vitro DMPK and physicochemical data on a set of publicly disclosed compounds”.
In brackets after ≈: the same amount, converted by molar mass.

What was measured:
physchem [1] = details: octan-1-ol/water, pH 7.4, LogD7.4
in vitro [2] = details: hepatocytes
in vitro [3] = details: human, plasma
in vitro [4] = details: SD, HW or BN, rat, plasma
physchem [5] = details: pH 7.4 buffer
in vitro [6] = details: human

Structure (SMILES)	logD (physchem [1])	hepatocyte CLint (in vitro [2])	other results
Cc1ccc(-c2nc3ccccc3[nH]2)cc1NC(=O)c1ccc(OCc2ccccn2)cc1	3.24	10.2 µL/min/1e6 cells	–
C[C@@](C(=O)O[C@H]1C[N+]2(CCCc3cc4ccccc4s3)CCC1CC2)(c1ccccc1)N1CCCCC1	–	65 µL/min/1e6 cells	–
C[C@@](C(=O)O[C@H]1C[N+]2(CCCOc3ccc(F)cc3)CCC1CC2)(c1ccccc1)N1CCCCC1	–	66 µL/min/1e6 cells	–
COc1ccc2nc(C)cc(-n3cc(CN4CCN(C(C)=O)CC4)nn3)c2c1	1.3	5.13 µL/min/1e6 cells	–
Cc1cn([C@H]2CCCN([C@H](CC3CCCCC3)c3ccc(C(=O)O)c(Oc4cccc(Cl)c4)c3)C2)c(=O)[nH]c1=O	–	42.7 µL/min/1e6 cells	–
COc1ccc(N(C(=O)c2ccccc2)C(C(=O)NC[C@@H](C)O)c2ccccc2F)c(OC)c1 (some centres not stated)	–	> 150 µL/min/1e6 cells	–
C[C@@](CCc1ccc(-c2ccc(Cl)cc2)cc1)(C(=O)NO)S(C)(=O)=O	2.4	< 3 µL/min/1e6 cells	–
CN1CCN(c2ccc(-c3cnc4cccc(-c5cc(F)c(CN6CCOCC6)c(F)c5)c4n3)cc2)CC1	–	14.4 µL/min/1e6 cells	–
C[C@@](C(=O)O[C@H]1C[N+]2(CCCc3cncnc3)CCC1CC2)(c1ccccc1)N1CCCCC1	–	66 µL/min/1e6 cells	–
O=c1n(CCCN2CCN(c3cccc(Cl)c3)CC2)nc2ccccn12 [TRAZODONE]	2.67	–	fraction unbound at 5 h (in vitro [3]): 0.03; fraction unbound at 5 h (in vitro [4]): 0.124; solubility thermodynamic (physchem [5]): 891 µM (≈ 331 µg/mL)
CO[C@H]1C[C@@H]2CC[C@@H](C)[C@@](O)(O2)C(=O)C(=O)N2CCCC[C@H]2C(=O)O[C@H]([C@H](C)C[C@@H]2CC[C@@H](OC(=O)C(C)(CO)CO)[C@H](OC)C2)CC(=O)[C@H](C)/C=C(\C)[C@@H](O)[C@@H](OC)C(=O)[C@H](C)C[C@H](C)/C=C/C=C/C=C/1C [TEMSIROLIMUS]	–	> 150 µL/min/1e6 cells	–
CN[C@@H](C)C(=O)N[C@H](C(=O)N[C@H]1C[C@@H]2CC[C@H]1N(CCc1ccccc1)C2)C1CCCCC1	1.64	19.9 µL/min/1e6 cells	–
Cc1c(Sc2ccc(Cl)cc2)c2c(-c3cnccn3)cccc2n1CC(=O)O	0.03	–	fraction unbound at 5 h (in vitro [3]; PPB): 0.0124; microsomal CLint (in vitro [6]; microsomes): 8 µL/min/mg; fraction unbound at 5 h (in vitro [4]): 0.024
O=c1c2ccccc2[nH]n1Cc1c[nH]c2ccccc12	–	4.37 µL/min/1e6 cells	–
O=C(O)c1cc2ccccc2[nH]1 [INDOLE-2-CARBOXYLIC ACID]	–	11 µL/min/1e6 cells	–
CC(C)OC(=O)C(C)(C)Oc1ccc(C(=O)c2ccc(Cl)cc2)cc1 [FENOFIBRATE]	–	54 µL/min/1e6 cells	–
Cc1nn(-c2ccccc2)c(NS(=O)(=O)C2CCCCC2)c1C(=O)N[C@@H](C)C(C)(C)C	1.75	–	fraction unbound at 5 h (in vitro [3]; PPB): 0.0149; fraction unbound at 5 h (in vitro [4]): 0.0163; solubility thermodynamic (physchem [5]): 398 µM (≈ 178 µg/mL)
O=C(c1ccc(O)cc1O)N1CCCC1	–	> 150 µL/min/1e6 cells	–

Structure (SMILES)	logD (physchem [1])	hepatocyte CLint (in vitro [2])	other results
C[C@@](C(=O)O[C@H]1C[N+]2(CCOCCc3ccccc3)CCC1CC2)(c1ccccc1)N1CCCCC1	–	77 µL/min/1e6 cells	–
O=C(Nc1cccc(-c2nnn[nH]2)c1)c1cc(O)cc(C(F)(F)F)c1	0.8	29.5 µL/min/1e6 cells	–
Cc1ccc(C[C@@H](C(=O)O)N2CCC(CN3CCC(Oc4ccc(Cl)c(Cl)c4)CC3)CC2)cc1	–	< 3 µL/min/1e6 cells	–
CCC(C)(CC)C[C@H](c1ccc(C(=O)O)c(Oc2cccc(Br)c2)c1)N1CCC[C@H](n2cc(C)c(=O)[nH]c2=O)C1	1.97	69.2 µL/min/1e6 cells	–
C[C@@](C(=O)O[C@H]1C[N+]2(CCOc3ccc(Cl)cc3)CCC1CC2)(c1ccccc1)N1CCCCC1	–	60 µL/min/1e6 cells	–
c1ccc(Nc2nc3c(s2)CCCc2[nH]ncc2-3)nc1	–	36.3 µL/min/1e6 cells	–
CC1=C(C(=O)O)N2C(=O)[C@@H](NC(=O)[C@H](N)c3ccc(O)cc3)[C@H]2SC1 [CEFADROXIL]	-0.86	< 3 µL/min/1e6 cells	–
O=C(NCCc1ccccc1)c1cc(-n2ncc(=O)[nH]c2=O)ccc1Cl	0.74	–	fraction unbound at 5 h (in vitro [3]; PPB): 0.0251; microsomal CLint (in vitro [6]; liver microsomes): < 3 µL/min/mg; fraction unbound at 5 h (in vitro [4]): 0.0391
Cc1cc(Oc2cc(S(=O)(=O)N3CCC[C@H](n4cc(C)c(=O)[nH]c4=O)C3)ccc2O)ccc1Cl	2.4	20.4 µL/min/1e6 cells	–
CNC(=O)c1c(F)cccc1Nc1nc(Nc2cc3c(cc2OC)CCN3C(=O)CN(C)C)nc2[nH]ccc12	2.61	21.9 µL/min/1e6 cells	–
COc1cc2nccc(Oc3ccc(NC(=O)C4(C(=O)Nc5ccc(F)cc5)CC4)cc3)c2cc1OC [CABOZANTINIB]	–	3.16 µL/min/1e6 cells	–
Cc1nn(C)c(C)c1-c1cccc2c(CCCOc3cccc4ccccc34)c(C(=O)O)[nH]c12	–	61.7 µL/min/1e6 cells	–
CCC1(CCC(C)C)C(=O)NC(=O)NC1=O [AMOBARBITAL]	–	11.8 µL/min/1e6 cells	–
CSc1c(C(=O)NC2C3CC4CC(C3)CC2C4)cnn1-c1ccc(C(=O)O)cc1 (configuration not stated)	–	12.3 µL/min/1e6 cells	–
Nc1cc(C(=O)Nc2cccc(-c3nnn[nH]3)c2)cc(C(F)(F)F)c1	0.2	23.4 µL/min/1e6 cells	–
CC(C)C[C@H](N)C(=O)NC[C@H](O)C[C@@H](N)CC(=O)NN(C)CC(=O)O	–	< 3 µL/min/1e6 cells	–
CC(C)=CCC[N+]12CCC(CC1)[C@@H](OC(=O)[C@](C)(c1ccccc1)N1CCCCC1)C2	–	101 µL/min/1e6 cells	–
